Test results: patent US12172983B2, “EGFR inhibitors” (Blueprint Medicines Corporation, priority 2019, dated 2024)
Like-named read-outs stand apart in the source and are kept apart here.

What was measured:
EGFR (L858R T790M C797S) = target: T1, EGFR (L858R T790M C797S) (Homo sapiens, UniProt P00533, C797S/L858R/T790M); test: Biochemical EGFR inhibition assay (Caliper mobility shift), EGFR LRTMCS mutant; conditions: inhibitory activity against EGFR LRTMCS mutant; apparent IC50; read-out: Ext Enz LRTMCS
T1 construct: purchased SignalChem E10-122VG
T1 sequence (P00533 25-1210 T790M/C797S/L858R): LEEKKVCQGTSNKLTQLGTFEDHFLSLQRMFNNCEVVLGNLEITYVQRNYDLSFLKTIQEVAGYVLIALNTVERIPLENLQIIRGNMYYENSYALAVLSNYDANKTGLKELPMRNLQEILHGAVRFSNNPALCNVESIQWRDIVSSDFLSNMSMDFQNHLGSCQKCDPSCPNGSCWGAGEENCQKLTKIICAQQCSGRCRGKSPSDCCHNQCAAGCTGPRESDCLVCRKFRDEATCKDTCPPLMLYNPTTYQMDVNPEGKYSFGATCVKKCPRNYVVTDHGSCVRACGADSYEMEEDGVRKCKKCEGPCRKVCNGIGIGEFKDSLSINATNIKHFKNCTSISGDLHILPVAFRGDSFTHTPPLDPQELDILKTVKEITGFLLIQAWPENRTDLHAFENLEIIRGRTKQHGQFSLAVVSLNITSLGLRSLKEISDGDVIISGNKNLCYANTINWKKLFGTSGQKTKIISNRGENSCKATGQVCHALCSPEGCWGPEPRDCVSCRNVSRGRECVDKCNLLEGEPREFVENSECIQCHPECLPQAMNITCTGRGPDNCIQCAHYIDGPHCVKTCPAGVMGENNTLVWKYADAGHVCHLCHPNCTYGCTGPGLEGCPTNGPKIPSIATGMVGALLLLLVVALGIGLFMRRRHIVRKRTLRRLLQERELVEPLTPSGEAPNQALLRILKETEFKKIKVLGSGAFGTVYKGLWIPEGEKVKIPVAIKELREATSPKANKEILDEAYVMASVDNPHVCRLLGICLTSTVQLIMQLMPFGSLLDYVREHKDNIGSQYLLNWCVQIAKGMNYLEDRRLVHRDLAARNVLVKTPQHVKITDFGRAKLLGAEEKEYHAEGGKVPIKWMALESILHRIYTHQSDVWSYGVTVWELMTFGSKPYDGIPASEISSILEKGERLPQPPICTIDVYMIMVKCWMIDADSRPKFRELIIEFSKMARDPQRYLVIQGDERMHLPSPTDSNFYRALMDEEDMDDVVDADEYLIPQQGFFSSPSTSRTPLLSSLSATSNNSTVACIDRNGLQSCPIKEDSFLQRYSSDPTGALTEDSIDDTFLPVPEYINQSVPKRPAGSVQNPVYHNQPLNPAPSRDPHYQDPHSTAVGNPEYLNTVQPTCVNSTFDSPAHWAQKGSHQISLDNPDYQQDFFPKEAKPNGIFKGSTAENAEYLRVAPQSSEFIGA
Summary of the method: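 Each enzyme was allowed to phosphorylate 10–20% of its peptide at 25° C. before EDTA (35 mM) quench. Separated substrate and product peaks were measured by mobility shift, giving apparent IC50 values.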

[1] = system: phosphorylation of EGFR (Tyr1068) in NCI-H1975 cell line that harbors the EGFR L858R T790M mutations; test: NCI-H1975 pEGFR AlphaLISA assay; format: cell-based; conditions: 4-5 hours incubation, read-out: Ext pEGFR H1975
Summary of the method: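 Phospho-EGFR Tyr1068 AlphaLISA readout: lysates taken from compound-treated H1975 cells (L858R T790M EGFR) after a 4-5 h exposure at 37 °C. Cells had adhered overnight beforehand. IC50 derived by plotting % pEGFR inhibition against log compound concentration.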

[2] = Homo sapiens, NCI-H1975, inhibition of phosphorylation of mutant EGFR in NCI-H1975 cells
[3] = inhibition of phosphorylation of mutant EGFR in NCI-H1975 cells

| IC50 (EGFR (L858R T790M C797S)) [nM] | IC50 [1, 2] [nM] | IC50 [1, 3] [nM] | Structure (SMILES) |
| --- | --- | --- | --- |
| ≤ 15 | ≤ 10 | – | CCS(=O)(=O)C[C@H]1CN(c2ccc(C(C)C)c3cc(Nc4cnnc(N5CC[C@H](OC)[C@H](F)C5)n4)ncc23)[C@@H]1C [Compound 289, 8-[(2R,3S)-3-[(ethanesulfonyl)methyl]-2-methylazetidin-1-yl]-N-{3-[(3R,4S)-3-fluoro-4-methoxypiperidin-1-yl]-1,2,4-triazin-5-yl}-5-(propan-2-yl)isoquinolin-3-amine] |
| ≤ 15 | ≤ 10 | – | COC1CCN(c2nccc(Nc3cc4c(C(C)C)cnc(N5C[C@H](CS(C)(=O)=O)[C@H]5C)c4cn3)n2)CC1 [Compound 50, 8-[(2R,3S)-3-(methanesulfonylmethyl)-2-methylazetidin-1-yl]-N-[2-(4-methoxypiperidin-1-yl)pyrimidin-4-yl]-5-(propan-2-yl)-2,7-naphthyridin-3-amine] |
| ≤ 15 | 10.1 to 20 | – | C[C@H](CO)c1ccc(N2C[C@@H](CS(C)(=O)=O)[C@@H]2C)c2cnc(Nc3ccnc(N4CC[C@@H](O)[C@@](C)(F)C4)n3)cc12 (single isomer, unassigned) [Compound 196, (3S,4R)-3-fluoro-1-[4-({5-[(2S)-1-hydroxypropan-2-yl]-8-[(2S,3R)-3-(methanesulfonylmethyl)-2-methylazetidin-1-yl]isoquinolin-3-yl}amino)pyrimidin-2-yl]-3-methylpiperidin-4-ol or (3S,4R)-3-fluoro-1-[4-({5-[(2R)-1-hydroxypropan-2-yl]-8-[(2S,3R)-3-(methanesulfonylmethyl)-2-methylazetidin-1-yl]isoquinolin-3-yl}amino)pyrimidin-2-yl]-3-methylpiperidin-4-ol] |
| 20.1 to 30 | ≤ 10 | – | [2H]C([2H])([2H])O[C@H]1[C@@H](O)CN(c2nccc(Nc3cc4c(C(C)C)ccc(N5C[C@H](CS(C)(=O)=O)[C@H]5C)c4cn3)n2)CC1(F)F (single isomer, unassigned) [Compound 313, (3S,4S)-5,5-difluoro-1-(4-((5-isopropyl-8-((2R,3S)-2-methyl-3-((methylsulfonyl)methyl)azetidin-1-yl)isoquinolin-3-yl)amino)pyrimidin-2-yl)-4-(^2H3)methoxypiperidin-3-ol or (3R,4R)-5,5-difluoro-1-(4-((5-isopropyl-8-((2R,3S)-2-methyl-3-((methylsulfonyl)methyl)azetidin-1-yl)isoquinolin-3-yl)amino)pyrimidin-2-yl)-4-(^2H3)methoxypiperidin-3-ol] |
| ≤ 15 | 10.1 to 20 | – | CCS(=O)(=O)C[C@H]1CN(c2ccc(F)c3cc(Nc4ccnc(N5CC[C@@H](OC)[C@@H](F)C5)n4)ncc23)[C@@H]1C [Compound 85, 8-[(2R,3S)-3-[(ethanesulfonyl)methyl]-2-methylazetidin-1-yl]-5-fluoro-N-{2-[(3S,4R)-3-fluoro-4-methoxypiperidin-1-yl]pyrimidin-4-yl}isoquinolin-3-amine] |
| 15.1 to 20 | – | ≤ 10 | CCS(=O)(=O)C[C@H]1CN(c2ccc(C(C)C)c3cc(Nc4ccnc(N5CC[C@@H](OCCO)C(F)(F)C5)n4)ncc23)[C@@H]1C (single isomer, unassigned) [Compound 303, 2-{[(4S)-1-[4-({8-[(2R,3S)-3-[(ethanesulfonyl)methyl]-2-methylazetidin-1-yl]-5-(propan-2-yl)isoquinolin-3-yl}amino)pyrimidin-2-yl]-3,3-difluoropiperidin-4-yl]oxy}ethan-1-ol or 2-{[(4R)-1-[4-({8-[(2R,3S)-3-[(ethanesulfonyl)methyl]-2-methylazetidin-1-yl]-5-(propan-2-yl)isoquinolin-3-yl}amino)pyrimidin-2-yl]-3,3-difluoropiperidin-4-yl]oxy}ethan-1-ol] |
| 20.1 to 30 | ≤ 10 | – | CC(C)c1ccc(N2C[C@H](CS(C)(=O)=O)[C@H]2C)c2cnc(Nc3ccnc(N4CC[C@@](C)(O)C(F)(F)C4)n3)cc12 (single isomer, unassigned) [Compound 211, (R)-3,3-difluoro-1-(4-(5-isopropyl-8-((2R,3S)-2-methyl-3-(methylsulfonylmethyl)azetidin-1-yl)isoquinolin-3-ylamino)pyrimidin-2-yl)-4-methylpiperidin-4-ol or (S)-3,3-difluoro-1-(4-(5-isopropyl-8-((2R,3S)-2-methyl-3-(methylsulfonylmethyl)azetidin-1-yl)isoquinolin-3-ylamino)pyrimidin-2-yl)-4-methylpiperidin-4-ol] |
| ≤ 15 | – | 10.1 to 20 | CC(C)c1ccc(N2CC(CS(C)(=O)=O)C2)c2cnc(Nc3ccnc(N4CC[C@](C)(O)C[C@@H]4C)n3)cc12 (single isomer, unassigned) [Compound 45, (2S,4S)-1-[4-({8-[3-(methanesulfonylmethyl)azetidin-1-yl]-5-(propan-2-yl)isoquinolin-3-yl}amino)pyrimidin-2-yl]-2,4-dimethylpiperidin-4-ol or (2R,4R)-1-[4-({8-[3-(methanesulfonylmethyl)azetidin-1-yl]-5-(propan-2-yl)isoquinolin-3-yl}amino)pyrimidin-2-yl]-2,4-dimethylpiperidin-4-ol] |
| 20.1 to 30 | – | 10.1 to 20 | [2H]C([2H])([2H])O[C@H]1CCN(c2nccc(Nc3cc4c(C(C)C)ccc(N5CC(CS(C)(=O)=O)C5)c4cn3)n2)CC1(F)F (single isomer, unassigned) [Compound 287, N-{2-[(4R)-3,3-difluoro-4-(^2H3)methoxypiperidin-1-yl]pyrimidin-4-yl}-8-[3-(methanesulfonylmethyl)azetidin-1-yl]-5-(propan-2-yl)isoquinolin-3-amine or N-{2-[(4S)-3,3-difluoro-4-(^2H3)methoxypiperidin-1-yl]pyrimidin-4-yl}-8-[3-(methanesulfonylmethyl)azetidin-1-yl]-5-(propan-2-yl)isoquinolin-3-amine] |
| ≤ 15 | – | ≤ 10 | CO[C@H]1CCN(c2nccc(Nc3cc4c(C(C)C)ccc(N5CC(CS(C)(=O)=O)C5)c4cn3)n2)C[C@@H]1O (single isomer, unassigned) [Compound 53, (3S,4S)-1-[4-({8-[3-(methanesulfonylmethyl)azetidin-1-yl]-5-(propan-2-yl)isoquinolin-3-yl}amino)pyrimidin-2-yl]-4-methoxypiperidin-3-ol or (3R,4R)-1-[4-({8-[3-(methanesulfonylmethyl)azetidin-1-yl]-5-(propan-2-yl)isoquinolin-3-yl}amino)pyrimidin-2-yl]-4-methoxypiperidin-3-ol] |
| ≤ 15 | ≤ 10 | – | CC(C)c1ncc(N2C[C@H](CS(C)(=O)=O)[C@H]2C)c2cnc(Nc3ccnc(N4CC[C@@H](OC5CC5)[C@@H](F)C4)n3)cc12 [Compound 225] |
| 15.1 to 20 | 20.1 to 30 | – | CO[C@@H]1CCN(c2nccc(Nc3cc4c(C(C)C)ccc(N5C[C@H](CS(C)(=O)=O)[C@H]5C)c4cn3)n2)C[C@@H]1CO (single isomer, unassigned) [Compound 173, [(3R,4R)-1-[4-({8-[(2R,3S)-3-(methanesulfonylmethyl)-2-methylazetidin-1-yl]-5-(propan-2-yl)isoquinolin-3-yl}amino)pyrimidin-2-yl]-4-methoxypiperidin-3-yl]methanol or [(3S,4S)-1-[4-({8-[(2R,3S)-3-(methanesulfonylmethyl)-2-methylazetidin-1-yl]-5-(propan-2-yl)isoquinolin-3-yl}amino)pyrimidin-2-yl]-4-methoxypiperidin-3-yl]methanol] |
